Results as given in PubChem BioAssay AID1259321 (Sanford-Burnham Center for Chemical Genomics, 2017).
Activity calls are given as the source filed them.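 Rule for the calls: active = half-maximal concentration for changing protein binding to DNA, from the fitted dose curve, below 10 micromolar; inactive = the rest.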

The compounds below were run against Nuclear receptor subfamily 1 group D member 1 (Homo sapiens) (UniProt P20393) (assay: Rev-erbα–DNA interaction modulators – biochemical, FITC-DNA, fluorescence polarization, dose response (AID 1259321)). Conditions: Rev-erb alpha-FITC-DNA binding.
Nuclear receptor subfamily 1 group D member 1 (Homo sapiens), sequence (P20393 whole entry, looked up): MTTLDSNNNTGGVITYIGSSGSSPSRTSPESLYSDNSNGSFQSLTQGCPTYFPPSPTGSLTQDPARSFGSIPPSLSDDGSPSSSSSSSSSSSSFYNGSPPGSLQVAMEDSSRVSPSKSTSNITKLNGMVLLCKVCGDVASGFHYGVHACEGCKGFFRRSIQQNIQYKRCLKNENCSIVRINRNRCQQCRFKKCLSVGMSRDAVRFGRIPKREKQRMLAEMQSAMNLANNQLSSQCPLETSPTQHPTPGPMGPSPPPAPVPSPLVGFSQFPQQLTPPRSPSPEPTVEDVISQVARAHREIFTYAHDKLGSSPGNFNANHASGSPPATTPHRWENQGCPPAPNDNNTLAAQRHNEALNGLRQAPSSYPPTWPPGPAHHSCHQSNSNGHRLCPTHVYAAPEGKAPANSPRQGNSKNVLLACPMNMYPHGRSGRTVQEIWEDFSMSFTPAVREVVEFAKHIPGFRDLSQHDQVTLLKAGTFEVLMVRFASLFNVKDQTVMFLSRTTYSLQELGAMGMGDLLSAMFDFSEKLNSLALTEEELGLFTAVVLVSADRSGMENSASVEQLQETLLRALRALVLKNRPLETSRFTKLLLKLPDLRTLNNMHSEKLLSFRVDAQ

| SMILES | IC50 |
| --- | --- |
| COc1cccc(C(=O)n2ccc3ccc(-c4ccc5ccn(Cc6ccccc6)c5c4)cc32)c1 | 1.31 µM |
| C[n+]1ccc(/C=C/c2c[nH]c3ccccc23)cc1 | inactive |
| O=C(Cc1sc(-c2ccccc2)nc1-c1ccccc1)Nc1ccc(Cl)cc1 | 3.2 µM |
| CN1CCS/C1=C\C=C1/SC(=S)N(CC(=O)O)C1=O | inactive |
| COc1ccccc1NC(=O)c1sc2ncn(Cc3cccc(C)c3)c(=O)c2c1C | 0.38 µM |
| C[n+]1cc(C(=O)N2CCCCC2)ccc1/C=C/c1c[nH]c2ccccc12 | 9.3 µM |
| O=C(Nc1ccc(O)c(-c2nc3ccccc3s2)c1)C1=COCCO1 | inactive |
| N#CC1=C(SCC(N)=O)NC2=C(C(=O)c3ccccc32)C1c1ccc(Cl)cc1 (centres undefined) | 7.01 µM |
| O=c1oc2ccccc2c(NC(c2ccccc2)c2ccccc2)c1[N+](=O)[O-] | > 40 µM (inactive) |
| O=C(CCCOc1ccc(Cl)cc1Cl)NNC(=O)c1ccc(NC(=O)c2ccccc2)cc1 | 5.81 µM |
| CC(=O)c1sc(NC(=O)c2oc3ccc(F)cc3c2C)nc1C | 8.25 µM |
| CCc1ccc(NC(=O)CSc2nc3ncc(Br)cc3[nH]2)cc1 | 1.53 µM |
| Brc1cc(Br)c2ncnc(N3CCCCC3)c2c1 | 0.989 µM |
| Cc1ccc(-c2nn3c(C)nnc3s2)cc1NC(=O)c1ccc(-c2ccc(Cl)cc2Cl)o1 | > 40 µM (inactive) |
| O=C(CSc1nnc(-c2cccs2)n1-c1cccc(Cl)c1)c1cccc2c1OCCO2 | 2.25 µM |
| CCN(CC)c1ccc(C=C2SC(=S)NC2=O)cc1 | 6.72 µM |
| COc1ccc2c(C)cc(SCC(=O)Nc3cccnc3Cl)nc2c1 | > 40 µM (inactive) |
| Nc1ccc2cc3ccc(N)cc3nc2c1 | > 40 µM (inactive) |
| COc1cccc(CNC(=O)CCCn2c(=S)[nH]c3cc4c(cc3c2=O)OCO4)c1 | 0.616 µM |
| CCc1nc(SCC(=O)NC2CCCC2)c2oc3ccccc3c2n1 | > 40 µM (inactive) |
| CCOC(=O)c1c(NC(=S)Nc2ccc(OC)cc2)sc2c1CCC2 | 5.93 µM |
| CC(C)(C)c1nc(SCC(=O)Nc2ccc3c(c2)OCCO3)c2ccccc2n1 | 0.88 µM |
| Cc1sc2nc(Cc3ccccc3)[nH]c(=O)c2c1-c1ccccc1 | > 40 µM (inactive) |
| COC(=O)c1ccc2nc(Nc3nc4c(F)cc(F)cc4s3)sc2c1 | 2.14 µM |
| CCNC(=O)C[C@H]1CC[C@H]2[C@@H](COc3ccc(NC(=O)c4ccc5c(c4)OCO5)cc3C(=O)N2C)O1 | inactive |
| COC(=O)Cn1c(C)c(/C=C/c2cc[n+](C)cc2)c2ccccc21 | 2.25 µM |

| SMILES | IC50 |
| --- | --- |
| COC(=O)c1ccc(Cn2ccc3ccc(-c4ccc5ccn(C(=O)c6ccccc6OC)c5c4)cc32)cc1 | 5.24 µM |
| O=C(OCCN1C(=O)c2cccc3c(N4CCOCC4)ccc(c23)C1=O)c1ccc(Cl)cc1 | 5.07 µM |
| CCOC(=O)c1ccc2nc(Nc3nc4ccc(F)cc4s3)sc2c1 | 7.02 µM |
| COc1nc(-c2ccccc2)ccc1-c1noc(-c2cccs2)n1 | > 40 µM (inactive) |
| c1ccc2nc(-c3ccc(N4CCOCC4)cc3)ccc2c1 | > 40 µM (inactive) |
| Cc1cc(C)c(NC(=O)CSc2nc3ncc(Br)cc3[nH]2)c(Cl)c1 | 6.22 µM |
| Cc1ccc(CNC(=O)c2cc3c(=O)n(C)c4ccccc4c3n2C)cc1 | inactive |
| CCc1ccc(NC(=O)CSc2nnc(-c3n[nH]c4ccccc34)n2-c2ccccc2)cc1 | 2.64 µM |
| COc1ccccc1N=Nc1c(O)[nH]c(=S)[nH]c1=O | > 40 µM (inactive) |
| COc1ccccc1-c1ccc2c(c1)C(C)(Cc1cccc(C#N)c1)C(=O)N2 (centres undefined) | > 40 µM (inactive) |
| NS(=O)(=O)c1ccc(CCNc2nc3c(-c4cccc(F)c4)nnn3c3ccccc23)cc1 | > 40 µM (inactive) |
| COc1cccc(CNC(=O)C[C@H]2CC[C@H]3[C@@H](COc4ccc(NC(=O)c5cccs5)cc4C(=O)N3C)O2)c1 | 7.17 µM |
| COc1cc2c(cc1OC)CN(C(=O)CSc1nc(N)c(C#N)cc1C#N)CC2 | inactive |
| O=C(O)CSc1c2ccccc2cc2ccccc12 | > 40 µM (inactive) |
| Cc1ccc2nsnc2c1NC(=O)c1sc2ccccc2c1Cl | 1.49 µM |
| O=C1c2cccc3c(O)ccc(c23)C(=O)N1c1ccc(Cl)cc1 | 2.42 µM |
| CC1CCN(S(=O)(=O)c2ccc3nc(N4CCN(c5ccccc5)CC4)ccc3c2)CC1 | 8.29 µM |
| CCCn1c(N)c(C(=O)CSc2nc(C)nc3sc(C)c(C)c23)c(=O)[nH]c1=O | > 40 µM (inactive) |
| CCc1nc(SCC(=O)NCCc2ccccc2)c2oc3ccccc3c2n1 | 1.57 µM |
| CCOc1ccccc1NC(=O)c1nnn(CC(=O)Nc2cc(C)cc(C)c2)c1N | > 40 µM (inactive) |
| CCN(CC)c1ccc2cc(C=O)c(=O)oc2c1 | > 40 µM (inactive) |
| CC(=O)Nc1ccc(N2C(=O)c3cccc4c(O)ccc(c34)C2=O)cc1 | 0.328 µM |
| CCOc1ccc(CC(=O)Nc2sc(Cc3ccccc3)cc2C(N)=O)cc1OCC | > 40 µM (inactive) |
| COc1ccc(/C=C2\SC(=S)N(CCCC(=O)NC3CCCC3)C2=O)cc1OC | > 40 µM (inactive) |
| COc1cc(C(=O)Nc2cccc(-c3nc4cc(C)ccc4o3)c2)cc(OC)c1OC | 4.32 µM |
| CCN(CC)C(=O)CSC1=C(C#N)C(c2cccs2)C=C(C)N1 (centres undefined) | inactive |

| SMILES | IC50 |
| --- | --- |
| Cc1ccc2c(c1C)NC(=O)CC(c1ccccc1O)=N2 | > 40 µM (inactive) |
| Cc1c(Cl)cccc1NC(=O)Cn1cc(C(F)(F)F)cc(Cl)c1=O | > 40 µM (inactive) |
| COc1ccccc1CNC(=O)COC(=O)c1cccnc1SCC(=O)NCc1ccccc1OC | 5.05 µM |
| COc1ccc(NC(=O)CSc2nc(-c3ccc(C)cc3)cc(C(F)(F)F)c2C#N)cc1 | 0.675 µM |
| CCc1cc2cc(C)ccc2nc1SCC(=O)NC1CCCC1 | 3.66 µM |
| COc1ccc(CCn2c(O)c(C=Nc3ccc(F)cc3)c(=O)[nH]c2=O)cc1OC | inactive |
| COc1ccc(-n2nc(C(=O)NCC(=O)NCc3ccc(F)cc3)c3ccccc3c2=O)cc1OC | inactive |
| Cc1ccc(Sc2cnc3ccccc3n2)cc1 | inactive |
| CCN(c1cccc(C)c1)S(=O)(=O)c1cc2c3c(c1)CCC(=O)N3CCC2 | inactive |
| COc1ccc2[nH]cc(/C=C/c3cc[n+](C)cc3)c2c1 | 5.25 µM |
| CCn1c(=NC(=O)c2ccc(N3C(=O)CCC3=O)cc2)sc2c(OC)ccc(OC)c21 | 2.63 µM |
| COc1ccc(-c2cc(-c3ccc(OC)cc3)c(C#N)c(SC)n2)cc1 | 8.29 µM |
| CCOc1ccc(N=Nc2c(=O)[nH]n3c(=O)cc(C)[nH]c23)cc1 | > 40 µM (inactive) |
| C/C=C(/C(=C/C)c1ccc(O)cc1)c1ccc(O)cc1 | > 40 µM (inactive) |
| COc1cc(C=Cc2nnc3c4ccccc4cnn23)cc(OC)c1OC | inactive |
| CN1CCS/C1=C/C=C1\SC(=S)N(CC(=O)O)C1=O | 1.12 µM |
| Cc1nn(-c2ccc(Cl)c(Cl)c2)c(=O)c2ccccc12 | 5.16 µM |
| CCOC(=O)c1sc(=NC(=O)c2ccc(OC(C)C)cc2)n(C)c1C | 0.933 µM |
| O=[N+]([O-])c1ccc2c(c1)Cc1cc(F)ccc1-2 | 9.46 µM |
| CCOC(=O)COc1c(Cl)cc(C2NC(=S)NC(c3ccccc3)=C2C(C)=O)cc1OCC (centres undefined) | 1.16 µM |
| CC(C)(C)C(=O)Nc1cc(S(=O)(=O)N2CCCCC2)ccc1N1CCCCC1 | > 40 µM (inactive) |
| CCOc1ccc(/C(CC)=N/NC(=O)C2(C)CC2(Br)Br)cc1 (centres undefined) | 7.81 µM |
| COc1ccc(-c2c(C#Cc3ccsc3)c3cc(-c4ccc5c(c4)OCCO5)ccc3n2C)cc1 | > 40 µM (inactive) |
| COc1ccc(CC(=O)Nc2cc(C)c3c(=O)oc4ccccc4c3n2)cc1 | 4.42 µM |
| COc1ccccc1-c1ccc2c(c1)C(C)(Cc1ccccc1C#N)C(=O)N2 (centres undefined) | 7.13 µM |
| COC(=O)Cn1c(=NC(=O)CCS(=O)(=O)c2ccccc2)sc2c(OC)ccc(OC)c21 | 3.16 µM |

| SMILES | IC50 |
| --- | --- |
| CC[n+]1ccc(/C=C/c2c[nH]c3ccccc23)cc1 | inactive |
| CCOC(=O)C(C)Sc1cc(CS(=O)(=O)c2ccccc2)nc(-c2ccccc2)n1 (centres undefined) | > 40 µM (inactive) |
| O=C1c2cccc3c(N4CCCCC4)ccc(c23)C(=O)N1c1ccccc1O | 5.32 µM |
| CCOc1ccccc1-c1nc(-c2ccc(NC(=O)Cc3ccc(OC)cc3)cc2)no1 | 6.52 µM |
| CCn1c(SCC(=O)Nc2cc(C)on2)nc2sc(C)c(C)c2c1=O | 4.73 µM |
| COc1ccccc1N(C)S(=O)(=O)c1ccc(C(=O)Nc2nc(C)c(C(C)=O)s2)cc1 | inactive |
| COC(=O)c1ccccc1NC(=O)C1=CC(c2cccs2)=NS(=O)(=O)N1C | 1.14 µM |
| COCCN(Cc1cc2cc(C)ccc2n2nnnc12)C(=S)Nc1ccccc1C | 2.73 µM |
| Cc1cccc(N2CCN(c3ccc4cc(S(=O)(=O)N5CCCCC5)ccc4n3)CC2)c1C | > 40 µM (inactive) |
| CCN1C(=O)/C(=C\N2CCN(c3cccc(Cl)c3)CC2)SC1=S | 8.83 µM |
| Cc1cc(=O)oc2cc(NC(=O)c3cccc(F)c3)ccc12 | 1.02 µM |
| Cc1ccc(C2(C(F)(F)F)NC(=O)N3C(=C2C#N)Nc2ccccc23)cc1 (centres undefined) | 2.68 µM |
| Cc1ccc2cc(C#N)c(SCC(=O)NNC(=O)Cc3ccccc3)nc2c1 | 4.25 µM |
| CCCNC(=O)Nc1ccc2c(c1)C(=O)N(C)[C@H]1CC[C@H](CC(=O)NCC3CCCCC3)O[C@@H]1CO2 | > 40 µM (inactive) |
| CCC(C)NC(=O)Cc1c(OC)ccc2cc(Br)ccc12 (centres undefined) | 8.21 µM |
| COc1ccc(NC(=O)c2sc3nc(N4CCCC4)c4c(c3c2N)CC(C)(C)OC4)c(OC)c1 | > 40 µM (inactive) |
| COc1ccc(-n2nc(C(=O)NCC(=O)Nc3ccccn3)c3ccccc3c2=O)cc1Cl | 1.28 µM |
| O=C(COC(=O)c1cccnc1SCC(=O)NCc1ccccc1)NCc1ccccc1 | 4.11 µM |
| COC(=O)c1cc(-c2cc3ccccc3s2)c(=O)n2c1CCC2 | 7.41 µM |
| CCn1c2ccccc2c2cc(C3C(C#N)=C(C)NC(C)=C3C#N)ccc21 | > 40 µM (inactive) |
| Oc1c(C=Nc2cccc3cccnc23)sc2ccccc12 | 8.64 µM |
| CCOC(=O)c1nn(-c2ccc(Cl)cc2)c2nc(-c3ccc(C)cc3)c(C#N)c(=O)n12 | 2 µM |
| CCc1nc(SCC(=O)NCc2ccco2)c2c3c(sc2n1)CCCC3 | inactive |
| CCC(=O)c1cn(CC(=O)Nc2ccccc2Cl)c2ccccc12 | 3.98 µM |
| Cc1cc(-c2cccc([N+](=O)[O-])c2)nc2ccc3ccccc3c12 | 3 µM |
| COc1ccc(CNC(=O)C2CCC(CNS(=O)(=O)c3cccc4nsnc34)CC2)cc1 (centres undefined) | 8.16 µM |
